Laboratory results reported in PubChem BioAssay AID2060492 (Molecular Pharmacology Branch, DTP, NCI, 2025).

Test system: 695427-040-R-J1-PDC complex spheroids, viability percent T/C
Experiment: Anticancer human tumor 695427-040-R-J1-PDC patient-derived colon adenocarcinoma cell line growth inhibition [GQUAD]
Details: for IC50: curve of first compound; for viability, T/C: stronger effect = lower value
How it was run: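 Tumor cells were grown as complex spheroids with HUVEC endothelial cells and mesenchymal stem cells as stroma. G-quadruplex stabilizers were combined with targeted agents over half-log dilutions from near the clinical Cmax, or from 10 microM.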

[1] = second compound 0.0316 µM, first compound 0.0316 µM
[2] = second compound 0.0316 µM, first compound 0.1 µM
[3] = second compound 0.0316 µM, first compound 0.316 µM
[4] = second compound 0.0316 µM, first compound 1 µM
[5] = second compound 0.0316 µM, first compound 3.16 µM
[6] = second compound 0.0316 µM, first compound 10 µM
[7] = second compound 0.1 µM, first compound 0.0316 µM
[8] = second compound 0.1 µM, first compound 0.1 µM
[9] = second compound 0.1 µM, first compound 0.316 µM
[10] = second compound 0.1 µM, first compound 1 µM
[11] = second compound 0.1 µM, first compound 3.16 µM
[12] = second compound 0.1 µM, first compound 10 µM
[13] = second compound 0.316 µM, first compound 0.0316 µM
[14] = second compound 0.316 µM, first compound 0.1 µM
[15] = second compound 0.316 µM, first compound 0.316 µM
[16] = second compound 0.316 µM, first compound 1 µM
[17] = second compound 0.316 µM, first compound 3.16 µM
[18] = second compound 0.316 µM, first compound 10 µM
[19] = second compound 1 µM, first compound 0.0316 µM
[20] = second compound 1 µM, first compound 0.1 µM
[21] = second compound 1 µM, first compound 0.316 µM
[22] = second compound 1 µM, first compound 1 µM
[23] = second compound 1 µM, first compound 3.16 µM
[24] = second compound 1 µM, first compound 10 µM
[25] = second compound 3.16 µM, first compound 0.0316 µM
[26] = second compound 3.16 µM, first compound 0.1 µM
[27] = second compound 3.16 µM, first compound 0.316 µM
[28] = second compound 3.16 µM, first compound 1 µM
[29] = second compound 3.16 µM, first compound 3.16 µM
[30] = second compound 3.16 µM, first compound 10 µM
[31] = second compound 10 µM, first compound 0.0316 µM
[32] = second compound 10 µM, first compound 0.1 µM
[33] = second compound 10 µM, first compound 0.316 µM
[34] = second compound 10 µM, first compound 1 µM
[35] = second compound 10 µM, first compound 3.16 µM
[36] = second compound 10 µM, first compound 10 µM
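Further: spheroids exposed to compounds for seven days before readout.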

With `C#Cc1c(F)ccc2cc(O)cc(-c3ncc4c(N5CC6CCC(C5)N6)nc(OCC56CCCN5CC(F)C6)nc4c3F)c12` (stereo unspecified) + CN(C)c1ccc(Nc2c3ccc(NC(=O)CCN4CCCC4)cc3nc3cc(NC(=O)CCN4CCCC4)ccc23)cc1 the IC50 (second compound 0.0316 µM) was greater than 10 µM, the IC50 (second compound 0.1 µM) was greater than 10 µM and the IC50 (second compound 0.316 µM) was greater than 10 µM. It also gave an IC50 (second compound 1 µM) greater than 10 µM, an IC50 (second compound 3.16 µM) greater than 10 µM and an IC50 (second compound 10 µM) greater than 10 µM. It also gave a viability, T/C [1] of 101%, a viability, T/C [2] of 102% and a viability, T/C [3] of 100%. It also gave a viability, T/C [4] of 98.9%, a viability, T/C [5] of 98.4% and a viability, T/C [6] of 83.5%. The viability, T/C [7] was 106%, the viability, T/C [8] was 95.4% and the viability, T/C [9] was 98%. The viability, T/C [10] was 94%, the viability, T/C [11] was 97.5% and the viability, T/C [12] was 83.3%. For the same compound, the viability, T/C [13] was 96.4%, the viability, T/C [14] was 106% and the viability, T/C [15] was 94.6%. It also gave a viability, T/C [16] of 89.5%, a viability, T/C [17] of 99.1% and a viability, T/C [18] of 80.6%. It also gave a viability, T/C [19] of 100%, a viability, T/C [20] of 102% and a viability, T/C [21] of 106%. The viability, T/C [22] was 101%, the viability, T/C [23] was 91.8% and the viability, T/C [24] was 77.5%. For the same compound, the viability, T/C [25] was 101%, the viability, T/C [26] was 91% and the viability, T/C [27] was 92.9%. For the same compound, the viability, T/C [28] was 87.7%, the viability, T/C [29] was 86.2% and the viability, T/C [30] was 80.7%. For the same compound, the viability, T/C [31] was 87.1%, the viability, T/C [32] was 91.8% and the viability, T/C [33] was 86.1%. For the same compound, the viability, T/C [34] was 87.4%, the viability, T/C [35] was 82.4% and the viability, T/C [36] was 62.4%.

`CC[C@@]1(O)C(=O)OCc2c1cc1n(c2=O)Cc2cc3c(CN(C)C)c(O)ccc3nc2-1` + CN(C)c1ccc(Nc2c3ccc(NC(=O)CCN4CCCC4)cc3nc3cc(NC(=O)CCN4CCCC4)ccc23)cc1 showed an IC50 (second compound 0.0316 µM) greater than 0.316 µM, an IC50 (second compound 0.1 µM) greater than 0.316 µM and an IC50 (second compound 0.316 µM) greater than 0.316 µM. For the same compound, the IC50 (second compound 1 µM) was greater than 0.316 µM, the IC50 (second compound 3.16 µM) was greater than 0.316 µM and the IC50 (second compound 10 µM) was greater than 0.316 µM. The viability, T/C (second compound 0.0316 µM, first compound 0.000999 µM) was 109%, the viability, T/C (second compound 0.0316 µM, first compound 0.00316 µM) was 95% and the viability, T/C (second compound 0.0316 µM, first compound 0.00999 µM) was 108%. For the same compound, the viability, T/C [1] was 100%, the viability, T/C (second compound 0.0316 µM, first compound 0.0999 µM) was 104% and the viability, T/C [3] was 91.6%. The viability, T/C (second compound 0.1 µM, first compound 0.000999 µM) was 117%, the viability, T/C (second compound 0.1 µM, first compound 0.00316 µM) was 101% and the viability, T/C (second compound 0.1 µM, first compound 0.00999 µM) was 96.8%. The viability, T/C [7] was 101%, the viability, T/C (second compound 0.1 µM, first compound 0.0999 µM) was 98.9% and the viability, T/C [9] was 85%. The viability, T/C (second compound 0.316 µM, first compound 0.000999 µM) was 97.6%, the viability, T/C (second compound 0.316 µM, first compound 0.00316 µM) was 104% and the viability, T/C (second compound 0.316 µM, first compound 0.00999 µM) was 100%. For the same compound, the viability, T/C [13] was 111%, the viability, T/C (second compound 0.316 µM, first compound 0.0999 µM) was 100% and the viability, T/C [15] was 95.8%. It also gave a viability, T/C (second compound 1 µM, first compound 0.000999 µM) of 101%, a viability, T/C (second compound 1 µM, first compound 0.00316 µM) of 95.2% and a viability, T/C (second compound 1 µM, first compound 0.00999 µM) of 96.1%. It also gave a viability, T/C [19] of 99.9%, a viability, T/C (second compound 1 µM, first compound 0.0999 µM) of 97.8% and a viability, T/C [21] of 93.7%. For the same compound, the viability, T/C (second compound 3.16 µM, first compound 0.000999 µM) was 99.2%, the viability, T/C (second compound 3.16 µM, first compound 0.00316 µM) was 100% and the viability, T/C (second compound 3.16 µM, first compound 0.00999 µM) was 96.2%. The viability, T/C [25] was 103%, the viability, T/C (second compound 3.16 µM, first compound 0.0999 µM) was 110% and the viability, T/C [27] was 82.1%. For the same compound, the viability, T/C (second compound 10 µM, first compound 0.000999 µM) was 94.3%, the viability, T/C (second compound 10 µM, first compound 0.00316 µM) was 84.8% and the viability, T/C (second compound 10 µM, first compound 0.00999 µM) was 92.2%. It also gave a viability, T/C [31] of 88.3%, a viability, T/C (second compound 10 µM, first compound 0.0999 µM) of 91% and a viability, T/C [33] of 88.6%.

`COc1cc(C2c3cc4c(cc3C(OC3OC5COC(C)OC5C(O)C3O)C3COC(=O)C23)OCO4)cc(OC)c1O` (stereo unspecified) + CN(C)c1ccc(Nc2c3ccc(NC(=O)CCN4CCCC4)cc3nc3cc(NC(=O)CCN4CCCC4)ccc23)cc1 was tested, and the IC50 (second compound 0.0316 µM) was greater than 10 µM, the IC50 (second compound 0.1 µM) was greater than 10 µM and the IC50 (second compound 0.316 µM) was greater than 10 µM. For the same compound, the IC50 (second compound 1 µM) was greater than 10 µM, the IC50 (second compound 3.16 µM) was greater than 10 µM and the IC50 (second compound 10 µM) was greater than 10 µM. It also gave a viability, T/C [1] of 108%, a viability, T/C [2] of 90.1% and a viability, T/C [3] of 95.7%. For the same compound, the viability, T/C [4] was 97.8%, the viability, T/C [5] was 85.2% and the viability, T/C [6] was 80%. It also gave a viability, T/C [7] of 88.1%, a viability, T/C [8] of 91.6% and a viability, T/C [9] of 95.7%. For the same compound, the viability, T/C [10] was 83.5%, the viability, T/C [11] was 89.8% and the viability, T/C [12] was 76.9%. The viability, T/C [13] was 100%, the viability, T/C [14] was 91.5% and the viability, T/C [15] was 88.1%. The viability, T/C [16] was 89.2%, the viability, T/C [17] was 90.5% and the viability, T/C [18] was 76.7%. The viability, T/C [19] was 88.9%, the viability, T/C [20] was 97.4% and the viability, T/C [21] was 94.4%. For the same compound, the viability, T/C [22] was 93.3%, the viability, T/C [23] was 88.1% and the viability, T/C [24] was 72.6%. For the same compound, the viability, T/C [25] was 89.1%, the viability, T/C [26] was 90.9% and the viability, T/C [27] was 96.7%. For the same compound, the viability, T/C [28] was 90.3%, the viability, T/C [29] was 91% and the viability, T/C [30] was 76.5%. The viability, T/C [31] was 87.2%, the viability, T/C [32] was 77.4% and the viability, T/C [33] was 81.2%. It also gave a viability, T/C [34] of 80.8%, a viability, T/C [35] of 77.5% and a viability, T/C [36] of 66.4%.
